From patent publication US20240043386A1, “Modulators of the Cystic Fibrosis Transmembrane Conductance Regulator Protein and Methods of Use” (AbbVie Global Enterprises Ltd., priority 2021, published 2024)
Read-outs that look alike come from different tables or passages of the source.

How the values were obtained:
F508del/F508del CFTR = target: T1, F508del/F508del CFTR (Homo sapiens, UniProt P13569, DEL508-508); test: Trans-Epithelial Current Clamp (TECC) assay using primary human bronchial epithelial cells; format: cell-based
T1 construct: cells isolated from CF patients with the homozygous mutation; endogenous in cells; host or cells: primary human bronchial epithelial (hBE) cells from CF patients homozygous for F508del
T1 sequence (P13569 with tags, fused parts or gaps DEL508-508): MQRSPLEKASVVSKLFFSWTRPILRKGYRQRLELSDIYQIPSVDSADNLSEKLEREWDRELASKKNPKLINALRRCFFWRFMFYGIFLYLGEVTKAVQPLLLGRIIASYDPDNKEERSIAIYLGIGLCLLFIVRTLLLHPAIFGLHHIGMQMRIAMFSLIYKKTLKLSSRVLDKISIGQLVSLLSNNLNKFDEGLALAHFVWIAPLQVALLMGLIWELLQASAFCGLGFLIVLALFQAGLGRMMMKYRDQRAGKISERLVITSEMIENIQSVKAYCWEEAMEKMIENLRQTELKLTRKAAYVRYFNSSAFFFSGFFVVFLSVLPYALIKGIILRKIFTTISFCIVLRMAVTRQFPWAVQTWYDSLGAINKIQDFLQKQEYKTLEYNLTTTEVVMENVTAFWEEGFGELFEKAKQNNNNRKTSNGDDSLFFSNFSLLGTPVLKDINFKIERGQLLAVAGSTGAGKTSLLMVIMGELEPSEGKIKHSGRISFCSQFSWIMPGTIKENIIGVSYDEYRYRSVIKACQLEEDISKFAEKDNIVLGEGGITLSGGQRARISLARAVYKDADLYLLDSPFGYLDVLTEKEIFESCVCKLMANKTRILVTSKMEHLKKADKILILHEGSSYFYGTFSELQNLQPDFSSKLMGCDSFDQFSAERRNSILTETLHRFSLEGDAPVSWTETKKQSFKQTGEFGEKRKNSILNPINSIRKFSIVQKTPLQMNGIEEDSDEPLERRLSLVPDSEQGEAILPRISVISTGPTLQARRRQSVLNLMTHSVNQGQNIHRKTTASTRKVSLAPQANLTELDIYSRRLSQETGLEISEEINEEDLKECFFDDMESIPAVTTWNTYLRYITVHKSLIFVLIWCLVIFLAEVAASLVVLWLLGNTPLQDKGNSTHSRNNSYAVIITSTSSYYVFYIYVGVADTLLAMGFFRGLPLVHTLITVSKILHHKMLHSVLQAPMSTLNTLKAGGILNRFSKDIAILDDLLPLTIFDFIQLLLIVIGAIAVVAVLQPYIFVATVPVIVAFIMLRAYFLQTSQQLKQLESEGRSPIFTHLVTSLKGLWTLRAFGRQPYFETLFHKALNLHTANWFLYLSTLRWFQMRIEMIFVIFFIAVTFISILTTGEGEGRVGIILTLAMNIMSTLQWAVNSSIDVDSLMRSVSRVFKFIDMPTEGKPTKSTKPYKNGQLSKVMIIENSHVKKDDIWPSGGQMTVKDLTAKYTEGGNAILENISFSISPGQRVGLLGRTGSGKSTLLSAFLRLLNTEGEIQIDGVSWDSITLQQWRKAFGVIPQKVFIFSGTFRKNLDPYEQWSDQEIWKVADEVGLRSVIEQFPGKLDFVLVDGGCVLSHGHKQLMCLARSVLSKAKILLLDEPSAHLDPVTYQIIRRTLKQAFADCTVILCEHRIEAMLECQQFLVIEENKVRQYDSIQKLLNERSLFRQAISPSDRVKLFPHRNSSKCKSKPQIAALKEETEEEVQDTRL
Summary of the method: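 F508del/F508del primary hBE cells grown 35 days at air-liquid interface were treated basolaterally with C2 correctors plus fixed co-corrector and potentiator for 18-24 h at 37° C. TECC-24 current clamp at 36.5° C in HEPES-buffered F-12 Coon's, pH 7.4; equivalent current IEQ=VT/RT, plus AUC between forskolin peak and bumetanide.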

F508delCFTR = target: T2, F508delCFTR (Homo sapiens, UniProt P13569, DEL508-508); test: Cell Surface Expression-Horse Radish Peroxidase (CSE-HRP) assay in CFBE41o-F508delCFTR-HRP cells; format: cell-based; details: for EC50: CFBE41o-F508delCFTR-HRP cells, 18-24 hours at 33° C., luminescence
T2 construct: expressed in transfected cells; host or cells: CFBE41o- human lung-derived epithelial cell line, doxycycline-inducible expression
T2 sequence (P13569 with tags, fused parts or gaps DEL508-508): as above
Summary of the method: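 CFBE41o- cells expressing F508delCFTR with HRP in the fourth exofacial loop were doxycycline-induced (0.5 μg/mL) for 68–72 h, then exposed to correctors for 18–24 h at 33 °C, with or without 2 μM co-corrector. Surface HRP was read by luminol luminescence, and % activity was normalized to the on-plate positive control; EC50 came from a variable-slope sigmoidal fit (8 points, 3-fold dilution, 20 or 30 μM top).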

`COc1ccc(C)cc1[C@]1(C(=O)NS(=O)(=O)c2cccc3nc(C)ccc23)C[C@@H]1c1ccc(C)nc1` [Example 11, (1S,2R)-1-(2-methoxy-5-methylphenyl)-2-(6-methylpyridin-3-yl)-N-(2-methylquinoline-5-sulfonyl)cyclopropane-1-carboxamide] was tested, and the “Emax (% Dual)” value (F508del/F508del CFTR; maximum percent activity relative to positive control (co-corrector 0.15 μM + potentiator 0.45 μM = 100%), primary hBE cells F508del/F508del) was 214 % Dual, the EC50 (F508del/F508del CFTR; primary hBE cells homozygous F508del/F508del, test C2 corrector with co-corrector and potentiator, 18-24 hours at 37° C., equivalent CFTR current (IEQ)/AUC) was 49 nM and the EC50 (F508delCFTR; with co-corrector (2 μM), read-out: EC50 (with co-corrector)) was 2820 nM. The EC50 (F508delCFTR; without co-corrector, read-out: EC50 (without co-corrector)) was 4600 nM and the “Maximum % activity (without co-corrector)” value (F508delCFTR; without co-corrector, normalized to on-plate positive control corrector (2 μM)) was 679%.
